Experimental data as given in patent US6858714B2, “Cyclic GMP phosphodiesterase” (Incyte Corporation, priority 1997, dated 2005).

Legend:
PDE9A [1] = biological target: T1, PDE9A (Homo sapiens, UniProt O76083); experiment: Effect of known PDE inhibitors on PDE9A activity (hydrolysis of 3H-cGMP); assay type: biochemical; settings: cGMP as substrate, FIG. 5; for inhibition of PDE9A activity: up to 100 μM of inhibitor
T1 construct: A 1.8 kb region of PDE9A encoding the full length protein (nucleotides 61-1842) was amplified and cloned; made in house; host or cells: Sf9 insect cells (baculovirus, pFASTBAC)
Protocol: A 1.8 kb region of PDE9A encoding the full length of the protein was cloned into the baculovirus transfer vector pFASTBAC, expressed in sf9 cells, and a cell lysate prepared from these cells for enzyme assays. […] PDE9A was not inhibited by up to 100 μM of rolipram (inhibitor of PDE4), dipyridamole (inhibitor of PDE2, 4, 5, and 6), SKF94120 (inhibitor of PDE3), vinpocetine (inhibitor of PDE1), or IBMX (non-specific PDE inhibitor). […] Of particular note is the expression of PDE9A in Crohn's disease.
PDE9A to be used for assay was prepared from transfected Sf9 cells. Cells were harvested by centrifugation, resuspended in homogenization buffer (20 mM Tris-HCl, 2 mM benzamidine, 1 mM EDTA, 0.25 M sucrose, 100 uM PMSF, pH 7.5 ) at 1×10^7 cells/ml, and disrupted using a Branson sonicating probe (3×10 second pulses). Cellular debris was removed by centrifugation at 14,000×g for 10 minutes. The supernatant was stored at −70° C.
PDE activity was assayed by measuring the conversion of ^3H-cGMP to ^3H-guanosine in the presence of PDE9A and 5′ nucleotidase. A one-step assay was run using a 100 uL assay containing 50 mM Tris-HCl pH 7.5, 10 mM MgCl^2, 0.1 unit 5′ nucleotidase (from Crotalus atrox venom), and 0.0064-2.0 uM ^3H-cGMP. The reaction was started by the addition of 25 μl of diluted enzyme supernatant. Reactions were run directly in mini Poly-Q scintillation vials (Beckman Instruments Inc., Fullerton Calif.). Assays were incubated at 37° C. for a time period that would yield less than 15% cGMP hydrolysis in order to avoid non-linearity associated with product inhibition. The reaction was stopped by the addition of 1 ml of Dowex AG1x8 (Cl form) resin (1:3 slurry). Three ml of scintillation fluid were added, and the vials were mixed. The resin in the vials was allowed to settle for 1 hr before counting. Soluble radioactivity associated with ^3H-guanosine was quantitated using a Beta scintillation counter. The amount of radioactivity recovered is proportional to the activity of PDE9A in the reaction.

PDE9A [2] = biological target: T1, PDE9A; experiment: Kinetics of enzyme activity of recombinant PDE9A (Lineweaver-Burke analysis); assay type: biochemical; settings: FIG. 3, read-out: Km of PDE9A for cGMP as substrate

T1 sequence (O76083 whole entry): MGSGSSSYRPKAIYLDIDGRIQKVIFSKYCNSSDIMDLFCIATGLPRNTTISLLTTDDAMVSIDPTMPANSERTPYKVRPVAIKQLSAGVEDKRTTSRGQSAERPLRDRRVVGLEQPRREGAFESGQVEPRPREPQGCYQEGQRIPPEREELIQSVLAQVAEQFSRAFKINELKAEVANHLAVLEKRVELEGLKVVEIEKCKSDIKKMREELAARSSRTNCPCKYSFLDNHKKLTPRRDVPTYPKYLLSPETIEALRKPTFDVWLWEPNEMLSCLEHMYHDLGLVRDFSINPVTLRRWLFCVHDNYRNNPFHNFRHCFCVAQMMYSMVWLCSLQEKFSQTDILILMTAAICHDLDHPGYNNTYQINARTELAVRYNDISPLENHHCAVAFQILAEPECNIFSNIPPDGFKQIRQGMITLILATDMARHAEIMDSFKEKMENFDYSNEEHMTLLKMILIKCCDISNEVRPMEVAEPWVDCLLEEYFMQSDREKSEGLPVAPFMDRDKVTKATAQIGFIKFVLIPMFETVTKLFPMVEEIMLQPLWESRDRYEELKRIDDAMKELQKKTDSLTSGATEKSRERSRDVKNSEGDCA

SMILES	inhibition of PDE9A activity (PDE9A [1])	further results
CC(=O)Nc1ccc(-c2c[nH]c(=O)cn2)cc1 [SKF94120]	not inhibited	–
OCCN(CCO)c1nc(N2CCCCC2)c2nc(N(CCO)CCO)nc(N3CCCCC3)c2n1 [dipyridamole]	not inhibited	–
CCCOc1ccccc1-c1nc2nn[nH]c2c(=O)[nH]1 [zaprinast]	–	IC50 (PDE9A [1]; recombinant PDE9A from Sf9 cell lysate, read-out: IC50 for inhibition of PDE9A): 35 µM
CC(C)Cn1c(=O)n(C)c(=O)c2[nH]cnc21 [IBMX]	not inhibited	–
CCOC(=O)C1=C[C@]2(CC)CCCN3CCc4c(n1c1ccccc41)[C@@H]32 [vinpocetine]	not inhibited	–
COc1ccc(C2CNC(=O)C2)cc1OC1CCCC1 (stereo not shown) [rolipram]	not inhibited	–
Nc1nc2c(ncn2[C@@H]2O[C@@H]3COP(=O)(O)O[C@H]3[C@H]2O)c(=O)[nH]1 [cGMP]	–	Km (PDE9A [2]): 0.17 µM
